Measured values published in patent US9815847B2 (Icahn School of Medicine at Mount Sinai, priority 2013, dated 2017).

Key:
K562 = assay: Cytotoxicity on K562 cancer cell line; format: cell-based; conditions: Homo sapiens; K562 chronic myelogenous leukemia; 96 h; 0.01-100 μM
Method: (§1) The effect of the compounds described herein on tumor cells was determined by the assay described by Latham et al., Oncogene 12:827-837 (1996). Tumor cells K562 (chronic myelogenous leukemia; leukemia cell line +ve for Bcr-Abl) or DU145 (prostate cancer) were plated in 12-well dishes at a cell density of 2.5×10^4 cells per well. The plated cells were treated 24 h. later with a DMSO solution of a compound as described herein at multiple concentrations ranging from 0.01 μM to 100 μM. The plates were examined 96 h. later under an inverted microscope, Olympus CK-2 using a 10× objective, and compound activity was noted by physical observation. When necessary, the total number of viable cells was determined by trypsinizing the wells and counting the number of viable cells, as determined by trypan blue exclusion, using a hemacytometer.

DU145 = assay: Cytotoxicity on DU145 cancer cell line; format: cell-based; conditions: Homo sapiens, DU-145; DU145 prostate cancer; 96 h; 0.01-100 μM
Method: as §1

Compound: CN1CCN(c2ccc(Nc3ncc(/C=C/C#N)c(N)n3)cc2)CC1 [Compound 8a, 3-{4-Amino-2-[4-(4-methylpiperazin-1-yl)phenylamino]pyrimidin-5-yl}acrylonitrile]
- IC50 (K562): 1 to 25 µM
- IC50 (DU145): 1 to 25 µM

Compound: CNc1nc(Nc2cc(OC)c(OC)c(OC)c2)ncc1/C=C/S(=O)(=O)c1ccc(F)cc1F [Compound 15g, (E)-5-{2-[(2,4-Difluorophenyl)sulfonyl]vinyl}-N^4-methyl-N^2-(3,4,5-trimethoxyphenyl)pyrimidine-2,4-diamine]
- IC50 (K562): 50 to 100 µM
- IC50 (DU145): 1 to 25 µM

Compound: COc1ccc(S(=O)(=O)/C=C/c2cnc(Nc3ccc(N4CCN(C)CC4)cc3)nc2Nc2ccn(C)n2)cc1 [Compound 15q, (E)-5-{2-[(4-Methoxyphenyl)sulfonyl]vinyl}-N^4-(1-methyl-1H-pyrazol-3-yl)-N^2-[4-(4-methylpiperazin-1-yl)phenyl]pyrimidine-2,4-diamine]
- IC50 (K562): < 1 µM
- IC50 (DU145): 1 to 25 µM

Compound: CN1CCC(c2ccc(Nc3ncc(/C=C/C#N)c(NC4CCCC4)n3)cc2)CC1 [Compound 8l, 3-{4-Cyclopentylamino-2-[4-(1-methylpiperidin-4-yl)phenylamino]pyrimidin-5-yl}acrylonitrile]
- IC50 (K562): 1 to 25 µM
- IC50 (DU145): 1 to 25 µM

Compound: CNc1nc(Nc2ccc(N3CCN(C)CC3)cn2)ncc1/C=C/S(=O)(=O)c1ccc(F)cc1F [Compound 15l, (E)-5-{2-[(2,4-Difluorophenyl)sulfonyl]vinyl}-N^4-methyl-N^2-[5-(4-methylpiperazin-1-yl)pyridin-2-yl]pyrimidine-2,4-diamine]
- IC50 (K562): 1 to 25 µM
- IC50 (DU145): 1 to 25 µM

Compound: Cn1ccc(Nc2nc(Nc3ccc4[nH]ccc4c3)ncc2/C=C/S(=O)(=O)c2ccc(F)cc2F)n1 [Compound 15s, (E)-5-{2-[(2,4-Difluorophenyl)sulfonyl]vinyl}-N^2-(1H-indol-5-yl)-N^4-(1-methyl-1H-pyrazol-3-yl)pyrimidine-2,4-diamine]
- IC50 (K562): 1 to 25 µM
- IC50 (DU145): 1 to 25 µM

Compound: CNc1nc(Nc2ccc(N3CCOCC3)cc2)ncc1/C=C/S(=O)(=O)c1ccc(F)cc1F [Compound 15e, (E)-5-{2-[(2,4-Difluorophenyl)sulfonyl]vinyl}-N^4-methyl-N^2-(4-morpholinophenyl)pyrimidine-2,4-diamine]
- IC50 (K562): 50 to 100 µM
- IC50 (DU145): 50 to 100 µM

Compound: CCN1CCN(c2ccc(Nc3ncc(/C=C/C#N)c(NC4CCCC4)n3)cc2)CC1 [Compound 8o, 3-{4-Cyclopentylamino-2-[4-(1-ethylpiperazin-4-yl)-phenylamino]-pyrimidin-5-yl}acrylonitrile]
- IC50 (K562): < 1 µM
- IC50 (DU145): < 1 µM

Compound: CCN(c1nc(Nc2ccc(N3CCN(C)CC3)cc2)ncc1/C=C/C#N)C1CCCC1 [Compound 8x, 3-{4-(N-Cyclopentyl-N-ethylamino)-2-[4-(4-methylpiperazin-1-yl)phenylamino]pyrimidin-5-yl}acrylonitrile]
- IC50 (K562): < 1 µM
- IC50 (DU145): < 1 µM

Compound: CNc1nc(Nc2ccc(OC)cc2)ncc1/C=C/S(=O)(=O)c1ccc(F)cc1F [Compound 15f, (E)-5-{2-[(2,4-Difluorophenyl)sulfonyl]vinyl}-N^2-(4-methoxyphenyl)-N^4-methylpyrimidine-2,4-diamine]
- IC50 (K562): 25 to 50 µM
- IC50 (DU145): 25 to 50 µM

Compound: COc1ccc(Nc2ncc(/C=C/C#N)c(NCC3CC3)n2)cc1 [Compound 8s]
- IC50 (K562): 1 to 25 µM
- IC50 (DU145): 1 to 25 µM

Compound: CNc1nc(Nc2ccc(N3CCN(C)CC3)cc2)ncc1/C=C/C#N [Compound 8b, 3-{4-Methylamino-2-[4-(4-methylpiperazin-1-yl)-phenylamino]pyrimidin-5-yl}acrylonitrile]
- IC50 (K562): < 1 µM
- IC50 (DU145): 1 to 25 µM

Compound: CN1CCN(c2ccc(Nc3ncc(/C=C/S(=O)(=O)c4ccc(F)cc4F)c(Nc4ccn(C)n4)n3)cc2)CC1 [Compound 15r, (E)-5-{2-[(2,4-Difluorophenyl)sulfonyl]vinyl}-N^4-(1-methyl-1H-pyrazol-3-yl)-N^2-[4-(4-methylpiperazin-1-yl)phenyl]pyrimidine-2,4-diamine]
- IC50 (K562): 1 to 25 µM
- IC50 (DU145): 1 to 25 µM

Compound: N#C/C=C/c1cnc(Nc2ccc3[nH]ccc3c2)nc1NCC1CC1 [Compound 8u, 3-{4-[(Cyclopropylmethyl)amino]-2-[(1H-indol-5-yl)amino]pyrimidin-5-yl)acrylonitrile]
- IC50 (K562): < 1 µM
- IC50 (DU145): < 1 µM

Compound: CNc1nc(Nc2nc3ccccc3[nH]2)ncc1/C=C/S(=O)(=O)c1ccc(F)cc1F [Compound 15h, (E)-N^2-(1H-Benzo[d]imidazol-2-yl)-5-{2-[(2,4-difluorophenyl)sulfonyl]vinyl}-N^4-methylpyrimidine-2,4-diamine]
- IC50 (K562): 1 to 25 µM
- IC50 (DU145): 1 to 25 µM

Compound: COc1ccc(S(=O)(=O)/C=C/c2cnc(Nc3ccc4[nH]ccc4c3)nc2NC2CCCC2)cc1 [Compound 15k, (E)-N^4-Cyclopentyl-N^2-(1H-indol-5-yl)-5-{2-[(4-methoxyphenyl)sulfonyl]vinyl}pyrimidine-2,4-diamine]
- IC50 (K562): 1 to 25 µM
- IC50 (DU145): 1 to 25 µM

Compound: CCNc1nc(Nc2ccc(N3CCN(C)CC3)cc2)ncc1/C=C/C#N [Compound 8c, 3-{4-Ethylamino-2-[4-(4-methylpiperazin-1-yl)phenylamino]pyrimidin-5-yl}acrylonitrile]
- IC50 (K562): < 1 µM
- IC50 (DU145): < 1 µM
